# Measured values from US6962920B2, “Pyrimidine derivatives and methods of making and using these derivatives” (Duquesne University of the Holy Ghost, priority 1992, dated 2005).
# Where two headings read alike, the source gives them in different places.
# Experiments:
# Tg DHFR = molecular target: T1, Tg DHFR (Toxoplasma gondii, UniProt Q07422); experiment: biochemical; type: biochemical
# T1 sequence (Q07422 1-610): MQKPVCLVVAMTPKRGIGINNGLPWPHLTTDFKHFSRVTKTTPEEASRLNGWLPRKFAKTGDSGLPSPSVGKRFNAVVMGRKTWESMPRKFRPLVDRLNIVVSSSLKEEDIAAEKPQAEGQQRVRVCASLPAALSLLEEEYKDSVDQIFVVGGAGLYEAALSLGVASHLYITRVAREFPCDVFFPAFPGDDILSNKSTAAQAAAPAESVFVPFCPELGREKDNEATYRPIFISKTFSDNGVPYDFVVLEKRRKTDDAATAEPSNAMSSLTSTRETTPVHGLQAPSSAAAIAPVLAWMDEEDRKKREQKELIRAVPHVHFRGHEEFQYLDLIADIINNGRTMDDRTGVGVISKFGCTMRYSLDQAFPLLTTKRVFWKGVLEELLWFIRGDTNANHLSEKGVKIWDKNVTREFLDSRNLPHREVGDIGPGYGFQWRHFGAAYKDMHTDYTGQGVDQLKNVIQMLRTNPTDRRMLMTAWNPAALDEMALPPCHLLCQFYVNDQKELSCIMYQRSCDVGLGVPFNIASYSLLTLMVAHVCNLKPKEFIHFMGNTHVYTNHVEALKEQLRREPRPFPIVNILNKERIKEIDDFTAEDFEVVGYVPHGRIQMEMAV
# Protocol: The selectivity ratio is a measure of the selectivity of a compound for Pc DHFR or Tg DHFR and is expressed as the IC50 value of the DHFR from rate liver (RL) divided by the IC50 value of either the Pc DHFR or the Tg DHFR, depending on which organism the compounds are being tested against. For example, the selectivity ratio of a compound is calculated by the following formula: [formula]
# SR = experiment: NCI in vitro anti-cancer activity, Leukemia; type: cell-based
# A549/ATCC = type: cell-based
# EKVX = type: cell-based
# NCI-H23 = type: cell-based
# COLO 205 = experiment: NCI in vitro anti-cancer activity, Colon Cancer; type: cell-based
# HT29 = experiment: NCI in vitro anti-cancer activity, Colon Cancer; type: cell-based
# KM12 = experiment: NCI in vitro anti-cancer activity, Colon Cancer; type: cell-based
# SW-620 = experiment: NCI in vitro anti-cancer activity, Colon Cancer; type: cell-based
# SF-268 = experiment: NCI in vitro anti-cancer activity, CNS Cancer; type: cell-based
# SF-295 = experiment: NCI in vitro anti-cancer activity, CNS Cancer; type: cell-based
# SNB-19 = experiment: NCI in vitro anti-cancer activity, CNS Cancer; type: cell-based
# U251 = experiment: NCI in vitro anti-cancer activity, CNS Cancer; type: cell-based
# SK-MEL-2 = experiment: NCI in vitro anti-cancer activity, Melanoma; type: cell-based
# UACC-62 = experiment: NCI in vitro anti-cancer activity, Melanoma; type: cell-based
# OVCAR-4 = experiment: NCI in vitro anti-cancer activity, Ovarian Cancer; type: cell-based
# OVCAR-5 = experiment: NCI in vitro anti-cancer activity, Ovarian Cancer; type: cell-based
# ACHN = experiment: NCI in vitro anti-cancer activity, Renal Cancer; type: cell-based
# RXF 393 = experiment: NCI in vitro anti-cancer activity, Renal Cancer; type: cell-based
# SN12C = experiment: NCI in vitro anti-cancer activity, Renal Cancer; type: cell-based
# UO-31 = experiment: NCI in vitro anti-cancer activity, Renal Cancer; type: cell-based
# PC-3 = experiment: NCI in vitro anti-cancer activity, Prostate Cancer; type: cell-based
# HS 578T = experiment: NCI in vitro anti-cancer activity, Breast Cancer; type: cell-based
# MDA-MB-435 = experiment: NCI in vitro anti-cancer activity, Breast Cancer; type: cell-based
# MDA-N = experiment: NCI in vitro anti-cancer activity, Breast Cancer; type: cell-based
# T-47D = experiment: NCI in vitro anti-cancer activity, Breast Cancer; type: cell-based
# Pc DHFR = molecular target: T2, Pc DHFR (Pneumocystis carinii, UniProt P16184); experiment: biochemical
# T2 sequence (P16184 1-206): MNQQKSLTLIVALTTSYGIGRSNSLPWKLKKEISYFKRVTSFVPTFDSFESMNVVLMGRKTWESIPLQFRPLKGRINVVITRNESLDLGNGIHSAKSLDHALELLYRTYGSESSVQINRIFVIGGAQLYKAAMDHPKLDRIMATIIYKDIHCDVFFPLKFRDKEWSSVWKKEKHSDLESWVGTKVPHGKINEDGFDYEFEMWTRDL
# A498 = experiment: NCI in vitro anti-cancer activity, renal cancer
# Description: The compounds identified below were further tested for their in vitro anti-cancer activity by the National Cancer Institute.
# [1] = Table 29, Non-Small Cell Lung Cancer
# [2] = Table 29, Non-Small Cell Lung Cancer, NCI-H23
# [3] = Table 29, Colon Cancer, COLO 205
# [4] = Table 29, Ovarian Cancer, OVCAR-4
# [5] = Table 29, Ovarian Cancer, OVCAR-5
# [6] = Table 29, Renal Cancer, RXF 393
# [7] = Table 29, Prostate Cancer, PC-3
# [8] = Table 29, Non-Small Cell Lung Cancer, read-out: GI50
smiles,measurement,setting,value
Nc1nc(N)c2c(CNc3ccc(C(=O)N[C@@H](CCC(=O)O)C(=O)O)cc3)c[nH]c2n1 [Compound 9],IC50,Tg DHFR,0.21 µM
same,GI50,"SR; Homo sapiens, Leukemia",> 100 µM
same,GI50,"A549/ATCC; Homo sapiens, Non-Small Cell Lung Cancer",< 0.01 µM
same,GI50,"EKVX; Homo sapiens, Non-Small Cell Lung Cancer, read-out: GI50",39.7 µM
same,GI50,"NCI-H23; Homo sapiens, NCI-H23, Non-Small Cell Lung Cancer",0.0575 µM
same,GI50,"COLO 205; Homo sapiens, COLO 205, Colon Cancer",> 100 µM
same,GI50,"HT29; Homo sapiens, HT-29, HT29, Colon Cancer",< 0.01 µM
same,GI50,"KM12; Homo sapiens, KM12, Colon Cancer",33.2 µM
same,GI50,"SW-620; Homo sapiens, SW-620, Colon Cancer",3.15 µM
same,GI50,"SF-268; Homo sapiens, SF-268, CNS Cancer",< 0.01 µM
same,GI50,"SF-295; Homo sapiens, SF-295, CNS Cancer",< 0.01 µM
same,GI50,"SNB-19; Homo sapiens, SNB-19, CNS Cancer",> 100 µM
same,GI50,"U251; Homo sapiens, U-251, U251, CNS Cancer",< 0.01 µM
same,GI50,"SK-MEL-2; Homo sapiens, SK-MEL-2, Melanoma",> 100 µM
same,GI50,"UACC-62; Homo sapiens, UACC-62, Melanoma",< 0.01 µM
same,GI50,"OVCAR-4; Homo sapiens, OVCAR-4, Ovarian Cancer",> 100 µM
same,GI50,"OVCAR-5; Homo sapiens, OVCAR-5, Ovarian Cancer",> 100 µM
same,GI50,"ACHN; Homo sapiens, Renal Cancer",< 0.01 µM
same,GI50,"RXF 393; Homo sapiens, RXF 393, Renal Cancer",> 100 µM
same,GI50,"SN12C; Homo sapiens, Renal Cancer",< 0.01 µM
same,GI50,"UO-31; Homo sapiens, UO-31, Renal Cancer",< 0.01 µM
same,GI50,"PC-3; Homo sapiens, PC-3, Prostate Cancer",> 100 µM
same,GI50,"HS 578T; Homo sapiens, Breast Cancer",> 100 µM
same,GI50,MDA-MB-435; Homo sapiens,0.687 µM
same,GI50,"MDA-N; Homo sapiens, Breast Cancer",< 0.01 µM
same,GI50,"T-47D; Homo sapiens, T47D, Breast Cancer",> 100 µM
same,IC50,Pc DHFR,0.038 µM
COc1ccc(CCc2cn(Cc3ccccc3)c3nc(N)nc(C)c23)cc1 [Compound 113-118],% inhibition Tg DHFR,Tg DHFR; @ 31 μM,15% @ 31 μM
same,GI50,A549/ATCC; [1],99.8 µM
same,GI50,NCI-H23; [2],97.3 µM
same,GI50,COLO 205; [3],38.2 µM
same,GI50,"HT29; Table 29, Colon Cancer, HT29",48.4 µM
same,GI50,"KM12; Table 29, Colon Cancer, KM12",48.4 µM
same,GI50,"SW-620; Table 29, Colon Cancer, SW-620",> 100 µM
same,GI50,"SF-268; Table 29, CNS Cancer, SF-268",> 100 µM
same,GI50,"SF-295; Table 29, CNS Cancer, SF-295",79.3 µM
same,GI50,"SNB-19; Table 29, CNS Cancer, SNB-19",> 100 µM
same,GI50,"SK-MEL-2; Table 29, Melanoma, SK-MEL-2",> 100 µM
same,GI50,"UACC-62; Table 29, Melanoma, UACC-62",80 µM
same,GI50,OVCAR-4; [4],80.1 µM
same,GI50,OVCAR-5; [5],> 100 µM
same,GI50,"ACHN; Table 29, Renal Cancer",34.8 µM
same,GI50,RXF 393; [6],94.7 µM
same,GI50,"SN12C; Table 29, Renal Cancer",> 100 µM
same,GI50,"UO-31; Table 29, Renal Cancer, UO-31",> 100 µM
same,GI50,PC-3; [7],64 µM
same,GI50,"HS 578T; Table 29, Breast Cancer",< 100 µM
same,GI50,"MDA-MB-435; Table 29, Breast Cancer",95.4 µM
same,GI50,"MDA-N; Table 29, Breast Cancer",78.3 µM
same,% inhibition Pc DHFR,Pc DHFR; @ 31 μM,60% @
same,GI50,"A498; Table 29, Renal Cancer, A498",14.2 µM
COc1ccccc1CCc1cn(Cc2ccccc2)c2nc(N)nc(C)c12 [Compound 113-148],% inhibition Tg DHFR,Tg DHFR; @ 85 μM,27% @ 85 μM
same,GI50,"SR; Table 29, Leukemia",3.51 µM
same,GI50,A549/ATCC; [1],6.46 µM
same,GI50,EKVX; [8],5.78 µM
same,GI50,NCI-H23; [2],8.47 µM
same,GI50,COLO 205; [3],11.7 µM
same,GI50,"HT29; Table 29, Colon Cancer, HT29",4.77 µM
same,GI50,"KM12; Table 29, Colon Cancer, KM12",12.2 µM
same,GI50,"SW-620; Table 29, Colon Cancer, SW-620",17.1 µM
same,GI50,"SF-268; Table 29, CNS Cancer, SF-268",11 µM
same,GI50,"SF-295; Table 29, CNS Cancer, SF-295",8.43 µM
same,GI50,"SNB-19; Table 29, CNS Cancer, SNB-19",10.9 µM
same,GI50,"U251; Table 29, CNS Cancer, U251",10.4 µM
same,GI50,"SK-MEL-2; Table 29, Melanoma, SK-MEL-2",13.1 µM
same,GI50,"UACC-62; Table 29, Melanoma, UACC-62",12.3 µM
same,GI50,OVCAR-4; [4],8.88 µM
same,GI50,OVCAR-5; [5],10.8 µM
same,GI50,"ACHN; Table 29, Renal Cancer",7.99 µM
same,GI50,RXF 393; [6],11.1 µM
same,GI50,"SN12C; Table 29, Renal Cancer",13.3 µM
same,GI50,"UO-31; Table 29, Renal Cancer, UO-31",4.78 µM
same,GI50,PC-3; [7],9.47 µM
same,GI50,"HS 578T; Table 29, Breast Cancer",14.9 µM
same,GI50,"MDA-MB-435; Table 29, Breast Cancer",13 µM
same,GI50,"MDA-N; Table 29, Breast Cancer",14.7 µM
same,GI50,"T-47D; Table 29, Breast Cancer",3.84 µM
same,% inhibition Pc DHFR,Pc DHFR; @ 85 μM,45% @
same,GI50,"A498; Table 29, Renal Cancer, A498",1.94 µM
COc1cc(CCc2c[nH]c3nc(N)nc(C)c23)cc(OC)c1OC [Compound 113-154A],Selectivity Ratio: RL DHFR/Tg,Tg DHFR; Table 26,0.23
same,IC50,"Tg DHFR; Table 26, read-out: Inhibitory Concentrations (IC50) Tg DHFR",10.2 µM
same,GI50,"SR; Table 29, Leukemia",32.5 µM
same,GI50,A549/ATCC; [1],26.1 µM
same,GI50,EKVX; Non-Small Cell Lung Cancer,selective
same,GI50,EKVX; [8],5.21 µM
same,GI50,NCI-H23; [2],26.9 µM
same,GI50,COLO 205; [3],48.2 µM
same,GI50,"HT29; Table 29, Colon Cancer, HT29",10 µM
same,GI50,"KM12; Table 29, Colon Cancer, KM12",46.5 µM
same,GI50,"SF-268; Table 29, CNS Cancer, SF-268",39.5 µM
same,GI50,"SF-295; Table 29, CNS Cancer, SF-295",36.6 µM
same,GI50,"SNB-19; Table 29, CNS Cancer, SNB-19",67.4 µM
same,GI50,"U251; Table 29, CNS Cancer, U251",23.4 µM
same,GI50,"SK-MEL-2; Table 29, Melanoma, SK-MEL-2",98.3 µM
same,GI50,"UACC-62; Table 29, Melanoma, UACC-62",19.6 µM
same,GI50,OVCAR-4; [4],77.8 µM
same,GI50,"ACHN; Table 29, Renal Cancer",35.7 µM
same,GI50,RXF 393; [6],32.7 µM
same,GI50,"SN12C; Table 29, Renal Cancer",43.1 µM
same,GI50,"UO-31; Table 29, Renal Cancer, UO-31",34 µM
same,GI50,PC-3; [7],22.2 µM
same,GI50,"HS 578T; Table 29, Breast Cancer",27 µM
same,GI50,"MDA-MB-435; Table 29, Breast Cancer",39.2 µM
same,GI50,"MDA-N; Table 29, Breast Cancer",35.3 µM
same,GI50,"T-47D; Table 29, Breast Cancer",60.2 µM
same,Selectivity Ratio: RL DHFR/Pc DHFR,Pc DHFR; Table 26,0.04
same,IC50,"Pc DHFR; Table 26, read-out: Inhibitory Concentrations (IC50) Pc DHFR",55 µM
same,GI50,A498; A498 renal cancer cell line,selective
same,GI50,"A498; Table 29, Renal Cancer, A498",0.845 µM
